Results from paper PMC7845594, “Novel Immune Modulators Enhance Caenorhabditis elegans Resistance to Multiple Pathogens” (mSphere, 2021).

Tests used:
[1] = test system: P. aeruginosa strain PA14; test: MIC assay (bacterial growth, no worms); assay type: cell-based, Pseudomonas aeruginosa
How it was run: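 PA14 was grown in static culture with serial 2-fold compound dilutions, without worms, for 24 h at 37°C. MIC was scored visually by turbidity. At least three biological replicates were run.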

[2] = test system: C. elegans transcriptome; test: Transcriptome profiling (Affymetrix microarrays), differentially expressed genes; assay type: in vivo, Caenorhabditis elegans; details: for Fold Change: downregulated genes
Method: To gain additional insight into the effect of LK molecules on C. elegans, young-adult, wild-type worms were treated with each drug at 100 µM for 8 h in the absence of pathogen. RNA was collected, and transcriptome profiling was performed.
Data were determined using Affymetrix microarrays, as described in Materials and Methods. Download Table S3, XLSX file, 0.07 MB.
Transcriptome profiling was performed on ∼6,000 wild-type, young adult worms incubated with either LK molecules or DMSO for 8 h. RNA isolation was performed using TRIzol extraction, followed by cleanup using RNeasy columns according to the manufacturer’s protocol. Each condition was analyzed in triplicate. Microarray data have been deposited in the GEO database, accession number GSE137516. […] Clustering and generation of the heat map was performed using Cluster 3.0 ([98]) and Treeview ([99]), respectively. Fold change of genes were normalized to average fold change of that gene over all clustered conditions. Genes and conditions were clustered using Euclidean distance and average linkages. […] Microarray data for non-LK molecules were collected from GEO omnibus. WormEXP was used as a secondary method for confirming statistical significance of potential pathways stimulated by each of the LK molecules ([100]). Gene ontologies were generated using DAVID ([101], [102]).

[3] = Downregulated genes, Affy_ID 171867_x_at

CN(C)/N=N/c1ccc(-c2cn(Cc3ccccc3)cn2)cc1 [LK38]
MIC ([1]; Pseudomonas aeruginosa, P. aeruginosa PA14, LB media, static culture, no worms, read-out: MIC): > 655 µM | MIC / EC ([1]; ratio of MIC to EC, P. aeruginosa PA14): > 97.8 | Fold Change ([2]; Affy_ID 171867_x_at, listed under genes C09B9.6, F36H12.7, K07F5.1, R05F9.13, R13H9.2, R13H9.4, T13F2.10, T13F2.11, Y59E9AR.1, Y59E9AR.7, ZK354.1): 0.2521 | Fold Change ([2]; Affy_ID 176276_s_at, listed under gene Y69A2AR.25 (LK34) or Y69A2AR.12 (LK38)): 0.3902 | Fold Change, gene ZK525.1 ([2]; Downregulated genes, Affy_ID 171849_x_at): 0.4368 | Fold Change, gene ZK354.10 [2, 3]: 0.2521 | Fold Change, gene ZK354.11 [2, 3]: 0.2521 | Fold Change, gene ZK354.4 [2, 3]: 0.2521 | Fold Change, gene ZK354.5 [2, 3]: 0.2521 | Fold Change, gene ZK525.1 ([2]; Downregulated genes, Affy_ID 172214_x_at): 0.3013 | Fold Change, gene ZK484.8 ([2]; Downregulated genes, Affy_ID 172381_x_at): 0.4248 | Fold Change, gene ZK546.3 ([2]; Downregulated genes, Affy_ID 172798_x_at): 0.1961 | Fold Change, gene ZK546.6 ([2]; Downregulated genes, Affy_ID 172900_x_at): 0.1945 | Fold Change, gene ZK354.4 ([2]; Downregulated genes, Affy_ID 172922_x_at): 0.2136 | Fold Change, gene ZK354.11 ([2]; Downregulated genes, Affy_ID 172925_x_at): 0.2447 | Fold Change, gene ZK354.5 ([2]; Downregulated genes, Affy_ID 172928_x_at): 0.2421 | Fold Change, gene ZK550.2 ([2]; Downregulated genes, Affy_ID 179513_at): 0.2459 | Fold Change, gene ZK484.5 ([2]; Downregulated genes, Affy_ID 182193_at): 0.3776 | Fold Change, gene ZK666.7 ([2]; Downregulated genes, Affy_ID 194066_s_at): 0.2101 | Fold Change ([2]; Gene C05C12.3, Affy_ID 183355_s_at): 0.3153 | Fold Change ([2]; Gene C08E3.1, Affy_ID 172309_x_at): 0.1357 | Fold Change ([2]; Gene C08E3.13, Affy_ID 172565_x_at): 0.1172 | Fold Change ([2]; Gene C08F11.13, Affy_ID 175229_at): 0.2733 | Fold Change ([2]; Gene C08F11.13, Affy_ID 185001_at): 0.09464 | Fold Change ([2]; Gene C09B9.6, Affy_ID 172903_x_at): 0.2435 | Fold Change ([2]; Gene C14C6.2, Affy_ID 183566_at): 0.3131 | Fold Change ([2]; Gene R01E6.3, Affy_ID 189628_at): 0.3184 | Fold Change ([2]; Gene R03E9.1, Affy_ID 193723_s_at): 0.2835 | Fold Change ([2]; Gene R04B5.9, Affy_ID 191440_at): 0.3161 | Fold Change ([2]; Gene R05F9.13, Affy_ID 172714_x_at): 0.2707 | Fold Change ([2]; Gene R05F9.3, Affy_ID 172725_x_at): 0.4569 | Fold Change ([2]; Gene R05F9.8, Affy_ID 172724_x_at): 0.2625 | Fold Change ([2]; Gene R12C12.1, Affy_ID 190616_at): 0.3782 | Fold Change ([2]; Gene R13H9.2, Affy_ID 172771_x_at): 0.2091 | Fold Change ([2]; Gene R13H9.4, Affy_ID 172770_x_at): 0.2077 | Fold Change ([2]; Gene T01C3.4, Affy_ID 188106_at): 0.02377 | Fold Change ([2]; Gene T02B11.3, Affy_ID 174051_s_at): 0.3852 | Fold Change ([2]; Gene T07C4.4, Affy_ID 178149_s_at): 0.3385 | Fold Change ([2]; Gene T07G12.5, Affy_ID 188496_s_at): 0.1128 | Fold Change ([2]; Gene T08B1.6, Affy_ID 192296_at): 0.264 | Fold Change ([2]; Gene T08B2.12, Affy_ID 184685_s_at): 0.1122 | Fold Change ([2]; Gene T09F5.9, Affy_ID 188947_at): 0.335 | Fold Change ([2]; Gene T13F2.10, Affy_ID 172906_x_at): 0.282 | Fold Change ([2]; Gene T13F2.11, Affy_ID 172905_x_at): 0.2555 | Fold Change ([2]; Gene T14B4.4, Affy_ID 190598_at): 0.3119 | Fold Change ([2]; Gene T15B7.9, Affy_ID 182858_at): 0.3485 | Fold Change ([2]; Gene T20D4.11, Affy_ID 184438_at): 0.08285 | Fold Change ([2]; Gene T22H2.6, Affy_ID 180962_s_at): 0.4528 | Fold Change ([2]; Gene T23B7.1, Affy_ID 172486_x_at): 0.4388 | Fold Change ([2]; Gene T23B12.8, Affy_ID 184855_at): 0.1808 | Fold Change ([2]; Gene T23F4.1, Affy_ID 180223_s_at): 0.03953 | Fold Change ([2]; Gene T23F4.3, Affy_ID 179815_at): 0.03894 | Fold Change ([2]; Gene T27A10.7, Affy_ID 186153_s_at): 0.1891 | Fold Change ([2]; Gene T27E4.7, Affy_ID 173756_at): 0.3486 | Fold Change ([2]; Gene T27E4.7, Affy_ID 173757_s_at): 0.3375 | Fold Change ([2]; Gene T28H11.6, Affy_ID 172704_x_at): 0.3336 | Fold Change ([2]; Gene W04B5.2, Affy_ID 180561_at): 0.445 | Fold Change ([2]; Gene W07B8.5, Affy_ID 191887_s_at): 0.336
